Results on six molecules are retold here after article PMC1525162 (BMC Pharmacology, 2006).

“Also recorded” adds a separate entry of the source. Bridge positions count the residues as written; N and C are the ends. Ends that are not written are not given here. Peptide text beside a SMILES is read from it.

The subject of assay [1] is CGRP receptor. The note with it: displaced by CGRP and CGRP(8–37); cited from earlier work. The source says:
(§1) Consequently, it is reasonable to assume that interactions of CGRP-F37 with the mature CLR-RAMP1 heterodimer would necessitate a more complex relationship in order to account for the high affinity binding associated with ...

The subject of assay [2] is endogenous CGRP receptor expressed on SK-N-MC human neuroblastoma cells. The note with it: cited from earlier work.
Excerpt: as §1

The test system of assay [3] is L24A, L34A and L24A,L34A CLR-RAMP1 heterodimers versus wild type. Description: Competition/saturation binding, leucine mutant CLRs compared with wild type. Details: species or system human. The note with it: for affinity at leucine mutants compared with wild type: L34A, L24A,L34A vs wild type CLR. The procedure:
(§2) A crude cell membrane preparation was prepared as previously described. Briefly, HEK293T-RAMP1 membranes were prepared by scraping and transferring cells to a 50 mL conical tube using cold HBSS followed with two washings by centrifugation at 1000 × g using cold HBSS. The intact cell pellet was resuspended in 10 mL of 0.25 M sucrose containing a protease inhibitor cocktail consisting of 10μg/mL benzamidine, 10μg/mL leupeptin, and 20μg/mL phenylmethysulfonylfluoride. The cells were disrupted by freezing followed by Dounce homogenization of the thawed suspension using 20 strokes from a loose fitting (B) pestle. This mixture was then centrifuged at 1260 × g for 5 min at 4°C. Buffer A (20 mM HEPES, pH 7.5, 1.4 mM EGTA, 12.5 mM MgCl2, 10μg/mL benzamidine, 10μg/mL leupeptin, and 20μg/mL phenylmethysulfonylfluoride) was added to the supernatant and centrifuged again at 30,000 × g for 15 min at 4°C. The resultant pellet was kept, resuspended in buffer A then centrifuged once more at 30,000 × g for 15 min at 4°C. The final crude membrane pellet was resuspended in buffer A containing 10% glycerol and stored in aliquots at -70°C until used for radioligand binding. Protein concentrations were measured using the method of Bradford.
The radioligand binding protocol used for this study was performed as previously described. […] Binding was stopped by filtering the membranes though Whatman GF/C glass fiber filters, followed by 5 – 5 mL washes with cold buffer B (20 mM HEPES, pH 7.5, 1.4 mM EGTA, 12.5 mM MgCl2) to remove any unbound drug. Amounts of total and non-specific radiolabel bound to cell membranes were calculated from radioactive counts remaining on the glass fiber filters.

The target in assay [4] is T1, wild type CLR-RAMP1 heterodimer (HEK293T-RAMP1 membranes) (Homo sapiens, UniProt O60894+Q16602). Description: Competition radioligand binding, wild type CLR. The note with it: compared to Ki of CGRP. As to the method:
as §2, with “The final crude membrane pellet was resuspended in buffer A containing 10% glycerol and stored in aliquots at -70°C until used for radioligand binding.” left out
(§3) The radioligand binding protocol used for this study was performed as previously described. […] Amounts of total and non-specific radiolabel bound to cell membranes were calculated from radioactive counts remaining on the glass fiber filters.

Assay [5] deals with endogenous CGRP receptors on acutely isolated pancreatic acinar cells. Further details: method as in PMID 7689110. The note with it: cited from earlier work.
Assay [6] concerns wild type and L24A, L34A, L24A,L34A CLR-RAMP1 (HEK293T-RAMP1 cells). Description: cAMP generation, wild type and leucine mutant CLRs compared. The note with it: L24A, L34A, L24A,L34A vs wild type CLR.
Assay [7] addresses wild type CLR-RAMP1 (transiently transfected HEK293T-RAMP1 cells) (Homo sapiens, UniProt O60894+Q16602). Description: cAMP generation, wild type CLR. It counts as cell-based.
Assay [8] concerns the target CGRP receptors endogenously expressed in rat brain and peripheral tissues. Details: method as in Van Rossum et al., 1994. The note with it: previously published equilibrium dissociation constant; ref Van Rossum et al., 1994; read-out: Reported Wild Type, Kd of radioligand; cited from earlier work.
Assay [9] relates to HEK293T-RAMP1 membranes without CLR. Description: Radioligand binding, non-transfected or empty-vector HEK293T-RAMP1 membranes. The note with it: increasing radioligand concentrations, data not shown. The procedure:
as §2, with “The final crude membrane pellet was resuspended in buffer A containing 10% glycerol and stored in aliquots at -70°C until used for radioligand binding.” left out
as §3

Assay [10] deals with T1, wild type CLR-RAMP1 heterodimer (HEK293T-RAMP1 membranes). Description: Saturation binding of [^125I-Tyr]CGRP(8–37), wild type CLR. The note with it: per mg wild type membrane protein; mean ± S.E., n = 3 in duplicate. As to the method:
as §2, with “The final crude membrane pellet was resuspended in buffer A containing 10% glycerol and stored in aliquots at -70°C until used for radioligand binding.” left out
as §3

In assay [11] the target is endogenous CGRP receptors expressed in the guinea pig atria. Details: method as in Rovero et al., 1992. The note with it: estimated from functional characterization, n = 3, ref Rovero et al., 1992, read-out: Reported Wild Type, equilibrium dissociation constant; cited from earlier work.
In assay [12] the target is CLR-RAMP1 heterodimer with the L24A,L34A CLR double mutant (UniProt Q16602). Description: radioligand binding; competition: increasing unlabeled peptide against specific [125I-Tyr]CGRP(8–37) binding on crude membranes of transiently transfected HEK293T-RAMP1 cells, same buffer as the saturation binding; Ki from IC50 by the method of Cheng and Prusoff.
Assay [13] concerns the target CLR-RAMP1 heterodimer with the L34A CLR mutant (UniProt Q16602). Described as above.
Assay [14] addresses CLR-RAMP1 heterodimer, wild type calcitonin-like receptor (CLR) with receptor-activity-modifying protein-1 (RAMP1) (UniProt Q16602). The description is as above.
Assay [15] deals with CLR-RAMP1 heterodimer with the L24A CLR mutant (UniProt Q16602). The assay is described as above.
Assay [16] concerns the target T2, CLR-RAMP1 heterodimer with the L34A CLR mutant (human | , UniProt Q16602 23-461; O60894 27-148, L34A). The assay is described as above.
Assay [17] deals with T3, CLR-RAMP1 heterodimer, wild type calcitonin-like receptor (CLR) with receptor-activity-modifying protein-1 … (human | , UniProt Q16602 23-461; O60894 27-148). The assay is described as above.
The target in assay [18] is T4, CLR-RAMP1 heterodimer with the L24A CLR mutant (human | , UniProt Q16602 23-461; O60894 27-148, L24A). Described as above.
In assay [19] the target is T5, CLR-RAMP1 heterodimer with the L24A,L34A CLR double mutant (human | , UniProt Q16602 23-461; O60894 27-148, L24A | L34A). The assay is described as above.
In assay [20] the target is T2, CLR-RAMP1 heterodimer with the L34A CLR …. Description: cell-based or functional assay.
Assay [21] addresses T3, CLR-RAMP1 heterodimer, wild type …. Description: cell-based or functional assay.
Assay [22] has as its target T4, CLR-RAMP1 heterodimer with the L24A CLR …. Description: cell-based or functional assay.
Assay [23] has as its target T5, CLR-RAMP1 heterodimer with the …. Description: cell-based or functional assay.

Consider `NCCCC[C@H](NC(=O)[C@@H](Cc1cc(Br)c(O)c(Br)c1)NC(=O)N1CCC(N2Cc3ccccc3NC2=O)CC1)C(=O)N1CCN(c2ccncc2)CC1` [BIBN4096BS], for which the “displacement in competition binding” value in [1] was “selectively be displaced in competition binding assays by CGRP and the receptor antagonist, CGRP(8–37)”. The “affinity for endogenous CGRP receptor” value in assay [2] is on record as “high affinity”.

For `CC(C)C[C@H](NC(=O)CNC(=O)[C@H](C)NC(=O)[C@H](CC(C)C)NC(=O)[C@H](CCCNC(=N)N)NC(=O)[C@H](Cc1c[nH]cn1)NC(=O)[C@@H](NC(=O)[C@@H](NC(=O)[C@@H]1CSSC[C@H](NC(=O)[C@H](C)N)C(=O)N[C@@H](CC(=O)O)C(=O)N[C@@H]([C@@H](C)O)C(=O)N[C@@H](C)C(=O)N[C@@H]([C@@H](C)O)C(=O)N1)C(C)C)[C@@H](C)O)C(=O)N[C@@H](CC(C)C)C(=O)N[C@@H](CO)C(=O)N[C@@H](CCCNC(=N)N)C(=O)N[C@@H](CO)C(=O)NCC(=O)NCC(=O)N[C@H](C(=O)N[C@H](C(=O)N[C@@H](CCCCN)C(=O)N[C@@H](CC(N)=O)C(=O)N[C@@H](CC(N)=O)C(=O)N[C@@H](Cc1ccccc1)C(=O)N[C@H](C(=O)N1CCC[C@H]1C(=O)N[C@H](C(=O)N[C@@H](CC(N)=O)C(=O)N[C@H](C(=O)NCC(=O)N[C@@H](CO)C(=O)N[C@@H](CCCCN)C(=O)N[C@@H](C)C(N)=O)C(C)C)[C@@H](C)O)C(C)C)C(C)C)C(C)C` [CGRP(1–36)] (H-ACDTATCVTHRLAGLLSRSGGVVKNNFVPTNVGSKA-NH2; disulfide 2-7 (inferred); N-terminus assumed), the “affinity at leucine mutants compared with wild type” value in assay [3] is listed as “no differences”. Further, the “affinity for wild type CLR compared with CGRP” value in [4] was “significant affinity loss”. In addition, in assay [5], the “amylase release” value is on record as “increase amylase release”. Further, the “cAMP potency at leucine mutants compared with wild type” value in assay [6] is “no different; also recorded: no significant potency differences”. In addition, the “maximal cAMP response” value in assay [7] (CGRP(1–36) compared with CGRP, CGRP(1–19) compared with CGRP(1–36) and CGRP) is given as “maximal response was similar”. Also, the “fold loss of EC50 potency vs CGRP, wild type” value in assay [7] (cAMP EC50 of the fragment compared with CGRP) is listed as “over 2,600 fold”. For the same molecule, the “cAMP potency compared with CGRP, wild type” value in [7] (compared to CGRP) is reported as “significantly less”.

Take `CC(C)C[C@H](NC(=O)CNC(=O)[C@H](C)NC(=O)[C@H](CC(C)C)NC(=O)[C@H](CCCNC(=N)N)NC(=O)[C@H](Cc1c[nH]cn1)NC(=O)[C@@H](NC(=O)[C@@H](NC(=O)[C@@H](N)Cc1ccc(O)c(I)c1)C(C)C)[C@@H](C)O)C(=O)N[C@@H](CC(C)C)C(=O)N[C@@H](CO)C(=O)N[C@@H](CCCNC(=N)N)C(=O)N[C@@H](CO)C(=O)NCC(=O)NCC(=O)N[C@H](C(=O)N[C@H](C(=O)N[C@@H](CCCCN)C(=O)N[C@@H](CC(N)=O)C(=O)N[C@@H](CC(N)=O)C(=O)N[C@@H](Cc1ccccc1)C(=O)N[C@H](C(=O)N1CCC[C@H]1C(=O)N[C@H](C(=O)N[C@@H](CC(N)=O)C(=O)N[C@H](C(=O)NCC(=O)N[C@@H](CO)C(=O)N[C@@H](CCCCN)C(=O)N[C@@H](C)C(=O)N[C@@H](Cc1ccccc1)C(N)=O)C(C)C)[C@@H](C)O)C(C)C)C(C)C)C(C)C` [[^125I-Tyr]CGRP(8–37)]: in [3] (L34A and L24A,L34A compared to wild type CLR), the “fold decrease in affinity, mutant receptors vs wild type” value is around 10 fold. Moreover, in [8], the Kd is 0.0002 µM. Moreover, in assay [9], the “specific binding without CLR” value is recorded as “no specific binding”. In assay [10], the “Bmax (maximal specific binding)” value is 285 ± 206 fmols/mg.

As to “Ac-SGGVVKNNFVPTNVGSKAF-NH2 [AcCGRP(19–37)]”, the “affinity at leucine mutants compared with wild type” value in assay [3] is recorded as “significantly different (P < .05) from the wild type receptor”. Also, in assay [11], the Kd is 0.933 µM.

The term Ki denotes a measure of affinity in units of concentration, obtained from inhibition or displacement. As for AcCGRP(19–37) (peptide), the Ki is 2 µM in assay [12], 4.6 µM in assay [13], 0.227 µM in assay [14] and 3 µM in assay [15].

In the case of ACDTATCVTHRLAGLLSRSGGVVKNNFVPTNVGSKA-NH2 (not fully specified (bridges); cysteine pairing not given here) [CGRP(1–36)], the Ki in [16], in assay [17], in assay [18] and in assay [19] was above 10 µM each time. In addition, the “EC50 of cAMP generation in transiently transfected HEK293T-RAMP1 cells” value amounted to 5.6 µM in assay [20], 4.3 µM in [21], 3.4 µM in assay [22] and 4.2 µM in assay [23].
